Read-outs that look alike come from different tables or passages of the source.
Columns and labels:
[1] = tested on: LP-BM5 murine leukemia virus (MuLV); test: MAIDS development in LP-BM5 infected mice after a single dose of vinblastine at different times post infection; format: in vivo, C57BL/6 mice
Description: A murine AIDS (MAIDS) pathology induced by LP-BM5 murine leukemia virus (MuLV) in susceptible mice is an effective tool to investigate mechanisms of retrovirus-induced immunodeficiency. […] Infection of a susceptible strain such as C57BL/6 mice with LP-BM5 leads to chronic splenomegaly, hypergammaglobulinaemia and development of immunodeficiency in both T and B cells. In vitro, there is a progressive impairment in the responsiveness of T-cells and B-cells to mitogenic or specific antigenic stimuli. In vivo, infected mice become increasingly susceptible to challenge with a variety of opportunistic organisms and can develop B-cell lymphoma. Deaths are first observed at 8-10 weeks post-infection (pi), and all mice die within 24 weeks (FIG. 1). These alterations in immune function reflect complex changes in the phenotype and function of all components of the immune network.
The treatment with a single dose of the anti-mitotic agent vinblastine (Vb) at different times pi is able to prevent the development/progression of MAIDS. […] Clearly, the Vb treatment is remarkably therapeutic when administered at 6 hr or 14 days pi with 100% ( 10/10) and 74% ( 20/27) of mice, respectively, showing no signs of MAIDS development at 10 weeks pi (as determined by spleen weight, histology and FACS analysis). […] Additional experiments have provided results of 100% of mice having no signs of MAIDS development at least 12 months after Vb treatment 14 days pi (data not shown). Although not as pronounced as the protection seen after day 14 treatment, moderate protection from MAIDS development was still observed. […] The total protection from MAIDS development seen in mice given Vb at 6 hrs pi is not unexpected as the virus replicates in actively replicating cells which are the target of the anti-mitotic drug thus any cells infected with the virus are killed by the Vb preventing the virus from rapidly establishing an infection in the host. However, the highly protective effect observed after a single treatment with Vb at 14 days pi is quite remarkable as, by this stage, the viral infection is well established and the early disease processes are well underway. We propose that this highly therapeutic effect is due to the Vb targeting a particular subset of immune regulator cells during their expansion phase and thereby altering the immune response to the viral infection. […] This leads to long term disease free survival for many months post-infection and treatment.
Spleens from the Day 14 pi Vb treated mice as well as infected and uninfected control mice were weighed and examined histologically. The splenic architecture of all MAIDS infected mice was profoundly disorganised as previously reported (Hartley et al., 1989).

MAIDS virus [2] = test: Rechallenge with MAIDS virus following protective vinblastine therapy; format: in vivo, mice; conditions: Vb at day 14 pi, rechallenge at 3 or 8 weeks post Vb treatment
Description: To determine if mice protected from MAIDS by the day 14 pi Vb treatment develop an immune response which would then protect them from a subsequent rechallenge with the MAIDS virus groups of mice, given the Vb therapy at day 14 pi, were rechallenged with the MAIDS virus at 3 or 8 weeks post Vb treatment. […] This is not an unexpected result as the dominant immunosuppression by the regulator population of cells would have been restored as a consequence of the immune effector response to the second (untreated) infection.

[3] = tested on: CD4+, CD8+ and CD25+CD4+ T cells of spleen; test: FACS analysis of spleen cells following Vb therapy on day 14 post infection; format: in vivo, mice
Experimental: FACS analysis of CD4^+ and CD8^+ T cells prepared from spleens of mice treated with Vb on Day 14 pi was performed (FIG. 6). CD25^+CD4^+ T cells were also examined as they have recently been identified as having an important regulatory function in mouse models of autoimmune disease and tumour immunology (Takahashi et al., 1998; Shimizu et al., 1999). It is possible that these cells may play a role in the regulation of the immune response to MAIDS. Day 14 pi and uninfected control mice were given Vb therapy and the spleens collected at 48 hours post Vb treatment.

MAIDS virus [4] = test: Spleen cell transfer into MAIDS infected, day 14 Vb treated mice; format: in vivo
Description: The experiments illustrated in FIG. 7 were designed to determine if a single dose of Vb, administered at 14 days pi, is eliminating a population of expanding CD4^+regulator T cells and thereby releasing effector cells from down-regulation and clearing the host of the MAIDS virus.
Mice were infected with MAIDS, received day 14 pi Vb treatment and then received an adoptive transfer of ~10^7 spleen cells from donor mice prepared as outlined in FIG. 7. For each experiment [designated (I), (II) and (III)] groups consisted of 7 recipient mice and 9 donor mice. Mice in Group I received whole spleens from infected mice that had not received any Vb treatment. Mice in Group II received whole spleen cell preparations, from infected mice, that had been depleted of CD4^+ cells using a FACS cell sorter after staining with fluorochrome-labeled anti-CD4 monoclonal antibody. […] Mice in Group III received whole spleens from infected donor mice that also received Vb treatment on day 14 pi.

MAIDS virus [5] = test: Adoptive transfer of CD4+ CD25+/- cells into MAIDS infected, day 14 Vinblastine treated mice; format: in vivo; conditions: uninfected donor cells into MAIDS-infected day 14 Vb-treated recipients; n=5
Description: An adoptive transfer experiment was designed to directly test the hypothesis that CD4+ CD25+ T cells are functioning as the regulator cells in the murine AIDS model. The same approach used to determine that the regulator cells are CD4+ T cells was used to test whether the CD4+ CD25+ subset are the target of day 14 Vinblastine treatment. […] 2.0×10^6 cells of the regulator CD4+ CD25+ phenotype were purified from single cell suspensions of donor spleens using MACS beads (Miltenyi Biotec) using two positive selection steps. The cells were then tested for purity by flow cytometry (both CD4+ CD25+ and CD4+ CD25− fractions were of >90% purity) and viability using trypan blue exclusion prior to transfer into uninfected (control) and MAIDS infected day 14 Vinblastine treated mice. CD4+ CD25− cells were also transferred to allow that the regulator cells may not present in the CD25+ fraction and also to allow for the possibility that these putative regulator cells may lose CD25 expression as they expand and become activated as was reported by Gavin et al., 2002.
Mice receiving adoptive transfer of cells were either uninfected (control) or MAIDS infected and day 14 Vinblastine treated to examine whether the transfer of cells would result in disease progression. […] Disease progression was assessed by spleen weight at 10 weeks post MAIDS infection.

murine T cell lymphoma = conditions: cited from earlier work

## CC[C@]1(O)C[C@@H]2CN(CCc3c([nH]c4ccccc34)[C@@](C(=O)OC)(c3cc4c(cc3OC)N(C)[C@H]3[C@@](O)(C(=O)OC)[C@H](OC(C)=O)[C@]5(CC)C=CCN6CC[C@]43[C@@H]65)C2)C1 [Vb, vinblastine]
[1]; Vb at day 14 pi, 4/5 mice
  mice protected from any splenomegaly at 20 weeks pi: 80%
[1]; Vb treatment 14 days pi, additional experiments, data not shown
  mice having no signs of MAIDS development at least 12 months after treatment: 100%
[1]; day 14 pi Vb treated mice with normal spleen weights (below 0.25 g)
  splenic architecture (histology) at 10 weeks pi: indistinguishable from that of uninfected control mice
[1]; day 14 pi Vb treated mice, preliminary, data not shown
  FACS analysis of spleen cells: cellular proportions (CD4+, CD8+ and B cells) and distributions at 10 weeks pi: like those observed in normal uninfected mice
[1]; single 6 mg/kg i.p. dose at 6 hr pi, 10/10 mice
  mice showing no signs of MAIDS development at 10 weeks pi (spleen weight, histology, FACS analysis): 100%
[1]; single 6 mg/kg i.p. dose at 6 days pi, 6/13 mice
  mice showing protective effect (no signs of MAIDS) at 10 weeks pi: 46%
[1]; single 6 mg/kg i.p. dose at 14 days pi, 20/27 mice
  mice showing no signs of MAIDS development at 10 weeks pi (spleen weight, histology, FACS analysis): 74%
[1]; single 6 mg/kg i.p. dose at day 2 pi
  protection against MAIDS development: no protection against MAIDS development
[1]; single 6 mg/kg i.p. dose at day 7 pi
  protection against MAIDS development: no protection against MAIDS development
MAIDS virus [2]
  protection from viral rechallenge (splenomegaly, lymphadenopathy at 20 weeks): not protected from viral rechallenge
[3]; CD4+ T cells and CD25+CD4+ T cells, 48 hours post Vb at day 14 pi
  cell subsets targeted in MAIDS infected mice (uninfected to infected ratios): preferentially targeted
[3]; spleens collected 48 hours post Vb, day 14 pi and uninfected mice
  effect on spleen cell subsets: all cell subsets are reduced
MAIDS virus [4]; Group I: ~10^7 whole spleen cells from MAIDS infected donors without Vb
  protection from MAIDS development after spleen cell transfer: completely prevented Vb from protecting mice from MAIDS development
MAIDS virus [4]; Group II: donor spleen cells depleted of CD4+ cells by FACS sorting
  protection from MAIDS development after spleen cell transfer: the protective effect of Vb was not overcome
MAIDS virus [4]; Group III: spleen cells from infected donors also given day 14 Vb
  protection from MAIDS development after spleen cell transfer: fully protected from MAIDS development
MAIDS virus [5]
  disease progression (spleen weight at 10 weeks post MAIDS infection) after transfer of CD4+ CD25+/- cells: disease progression was readily apparent
Murine T cell lymphoma; single dose at day 10 following tumour inoculation
  effect on tumour: enhancement
Murine T cell lymphoma; single dose at days 4, 6, 13 and 15 following tumour inoculation
  effect on tumour: regression

— patent publication US20090041760A1, “RETROVIRAL IMMUNOTHERAPY” (priority 2000, published 2009)
